Assay results from patent US6403805B1 (Janssen Pharmaceutica N.V., priority 1995, dated 2002).

Key:
[1] = biological target: T1, recombinant human MNL phosphodiesterase type IV B (Homo sapiens, UniProt Q07343); assay: Inhibition of recombinant human mononuclear lymphocyte (MNL) phosphodiesterase type IV B produced in insect cells with a baculovirus vector; assay type: biochemical; details: recombinant human MNL PDE IV B; 0.8 μM 3H-cAMP, pH 8, 37° C.; calculated graphically
T1 construct: made in house; host or cells: insect cells infected with recombinant baculovirus
T1 sequence (Q07343 whole entry): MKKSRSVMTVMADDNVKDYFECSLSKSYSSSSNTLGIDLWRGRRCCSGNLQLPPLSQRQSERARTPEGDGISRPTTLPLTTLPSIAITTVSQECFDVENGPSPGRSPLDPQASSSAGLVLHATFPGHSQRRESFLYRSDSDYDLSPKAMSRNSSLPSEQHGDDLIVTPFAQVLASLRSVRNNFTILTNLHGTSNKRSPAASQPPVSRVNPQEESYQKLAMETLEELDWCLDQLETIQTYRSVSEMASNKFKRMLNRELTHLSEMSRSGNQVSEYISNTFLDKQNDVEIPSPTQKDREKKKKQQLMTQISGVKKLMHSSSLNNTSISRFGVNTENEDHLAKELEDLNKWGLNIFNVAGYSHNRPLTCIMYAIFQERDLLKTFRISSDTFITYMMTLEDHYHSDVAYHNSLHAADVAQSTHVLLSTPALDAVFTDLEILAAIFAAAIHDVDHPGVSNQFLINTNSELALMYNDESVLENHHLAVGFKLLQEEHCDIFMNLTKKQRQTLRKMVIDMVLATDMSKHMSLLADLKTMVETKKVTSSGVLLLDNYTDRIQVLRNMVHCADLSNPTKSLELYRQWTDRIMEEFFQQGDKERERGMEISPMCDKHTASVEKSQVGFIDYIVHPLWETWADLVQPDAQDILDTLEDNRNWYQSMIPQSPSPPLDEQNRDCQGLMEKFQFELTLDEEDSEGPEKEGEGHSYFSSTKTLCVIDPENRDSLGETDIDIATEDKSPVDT
Protocol: Inhibition of recombinant human mononuclear lymphoctye (MNL) phosphodiesterase type IV B produced in insect cells with a baculovirus vector
The alleviating and/or curing effect of the instant compounds on allergic and atopic diseases was assessed by an in vitro assay system to detect an inhibiting effect on the recombinant human MNL phosphodiesterase type IV B.
Seventy-two hours after infection with recombinant baculovirus, the insect cells were harvested and pelleted at 500 g for 5 minutes. The cells were lysed in 10 ml lysis-buffer consisting of 20 mM Tris, 10 mM EGTA, 2 mM Na2EDTA, 1% Triton-X-100, 1 mM Na3VO4, 10 mM NaF, 2 μg/ml of leupeptine, pepstatine and aprotinine, 0.3 μg/ml benzamidine and 100 μg/ml TPCK pH 7.5. After 5 minutes on ice, solubilized cells were centrifuged at 4000 rpm for 15 minutes at 4° C. The resulting supernatant was filtered through a 0.45 μm filter (Millipore) and brought to TBS buffer (50 mM Tris, 150 mM NaCl pH 7.4).
After washing the column with equilibration buffer, PDE IV was eluted in 1.5 ml fractions containing 37.5 μl 1M Tris pH 8. The fractions were dialyzed overnight against 20 mM Tris, 2 mM Na2EDTA and 400 mM NaCl pH 7.5 and tested for PDE IV activity. Identification was done on SDS PAGE and Western Blot (anti-FLAG-M2). Active fractions were pooled, brought to 10% glycerol and stored at −70° C.
The incubation mixture (pH 8) (200 μl) contained 20 mM Tris, 10 mM magnesium sulphate, 0.8 μM ^3H-cAMP (310 mCi/mmole) and the phosphodiesterase type IV, the amount depending on the enzymatic activity.
When the effect of different compounds on phosphodiesterase activity was tested, the medium without cAMP was incubated with the compound(s) or its carrier (DMSO-1% final concentration) for 5 min. The enzymatic reaction was started by addition of ^3H-cAMP and stopped 10 min later after transferring the microtiter-plate in a waterbath at 100° C. for 5 min. After cooling to room temperature, alkaline phosphatase (0.25 μg/ml) was added and the mixture was incubated at 37° C. for 20 min. 100 μl of the mixture was subsequently applied to a GF-B filter-microtiter-plate (Millipore) filled with 300 μl DEAE-Sephadex-A25 suspension. The plate was washed 3 times with 75 μl 20 mM Tris pH 7.5 and the filtrates were collected for counting in the Packard Top Count scintillation counter.
The inhibiting effect of the present compounds on recombinant human MNL phosphodiesterase PDE IV B was measured at different concentrations of the instant compounds. The IC50 values (expressed in M) were calculated graphically from the thus obtained inhibition values.

[2] = tested on: dextran-induced oedema formation in mouse ear; assay: Dextran-induced oedema formation in mouse ear; assay type: in vivo, Male Swiss mice; details: vs background blueing value; for inhibition in vivo at 5 mg/kg / inhibition in vivo at 2.5 mg/kg: Mus musculus, 1 h, read-out: % inhibition of the extravasation of the dye
Protocol: Dextran-induced oedema formation in mouse ear Systemic injection of dextran T500 in normal, non-sensitized mice elicits increased vascular permeability, leading to extravasation and oedema of the extremities. When dextran is injected together with a blue dye, blueing of the ears is the most prominent feature of oedematous response. Male Swiss mice weighting 24-26 g were orally pretreated with the test compound dissolved in PEG-200 at different concentrations or solvent. One hour later, the mice were given an intravenous injection with an isotonic saline solution containing 12 mg/ml dextran T500 and 2.6 mg/ml pontamine sky-blue dye, in a volume of 0.1 ml per 10 g body weight. One hour and forty-five minutes later, the animals are sacrificed by ether and their ears removed. Extraction and quantification of the extravasated dye is done as described by Van Wauwe and Goossens (Drug Dev. Res. 1986, 8, 213-218). The extravasation of the dye is characterized by the blueing value which is defined as the concentration of the extracted dye in both ears. The background blueing value was determined once as the mean blueing value obtained by injecting a group of mice with a saline solution containing only dextran T500 and the blue dye. Table 6 lists the percentage inhibition of the extravasation of the dye when compared with the background extravasation of the dye when the test compound was administered at a dose of 5 mg/kg. The test compounds indicated by an asterisk (*) were tested at a dose of 2.5 mg/kg

[3] = oral dose of 5 mg/kg in PEG-200, one hour before i.v. dextran T500/pontamine sky-blue
[4] = asterisk (*): oral dose of 2.5 mg/kg in PEG-200, one hour before i.v. dextran T500/pontamine sky-blue
[5] = oral dose of 5 mg/kg in PEG-200, one hour before i.v. dextran T500/pontamine sky-blue, 5 mg/kg

Compound | IC50 [1] [µM] | inhibition in vivo at 5 mg/kg [2, 3] [%] | other results
1,3-dihydro-1-[2-(3,4-dimethoxyphenyl)ethyl]-2-methyl-3H-imidazol-2-one [Compound 86] | 1.8 |  | % inhibition of the extravasation of the dye [2, 3]: 39.0%
COc1ccc(C(C)Cn2cc[nH]c2=O)cc1OC1CCCC1 (racemic) [Compound 1, (±)-1-[2-[3-(cyclopentyloxy)-4-methoxyphenyl]propyl]-1,3-dihydro-2H-imidazol-2-one] | 0.0048 | 83.1 | 
COc1ccc(C(O)(Cn2cc[nH]c2=O)c2ccccc2)cc1OC1CCCC1 (racemic) [Compound 8, (±)-1-[2-[3-(cyclopentyloxy)-4-methoxyphenyl]-2-hydroxy-2-phenylethyl]-1,3-dihydro-2H-imidazol-2-one] | 1.9 | 12.4 | 
CCOC(=O)Cn1ccn(C(C)c2ccc(OC)c(OC3CCCC3)c2)c1=O (racemic) [Compound 9, (±)-ethyl 3-[1-[3-(cyclopentyloxy)-4-methoxy-phenyl]ethyl]-2,3-dihydro-2-oxo-1H-imidazole-1-acetate] |  | 10.2 | 
COc1ccc(C(C)Cn2cc[nH]c2=O)cc1OCC1CC1 (racemic) [Compound 10, (±)-1-[2-[3-(cyclopropylmethoxy)-4-methoxyphenyl]propyl]-1,3-dihydro-2H-imidazol-2-one] | < 0.01 | 91.9 | 
COc1ccc(C(N)CN2CCN(Cc3ccccc3)C2=O)cc1OC (racemic) [Compound 11, (±)-1-[2-amino-2-(3,4-dimethoxyphenyl)ethyl]-3-(phenylmethyl)-2-imidazolidinone] |  | 26.8 | 
COc1ccc(C(O)CN2CCNC2=O)cc1OC (racemic) [Compound 13, ±)-1-[2-(3,4-dimethoxyphenyl)-2-hydroxy-ethyl]-2-imidazolidinone] |  |  | % inhibition of the extravasation of the dye [2, 3]: 36.3%
COc1ccc(C(CN2CCNC2=O)NC(C)=O)cc1OC (racemic) [Compound 16, (±)-N-[1-(3,4-dimethoxyphenyl)[2-(2-oxo-1-imidazolidinyl)-ethyl]acetamide] |  |  | % inhibition of the extravasation of the dye [2, 3]: 10.8%
COc1ccc(C(O)Cn2cc[nH]c2=O)cc1O (racemic) [Compound 19, (±)-1,3-dihydro-1-[2-hydroxy-2-(3-hydroxy-4-methoxyphenyl)ethyl]-2H-imidazol-2-one] |  |  | inhibition in vivo at 2.5 mg/kg [2, 4]: 49.4%
O=c1[nH]ccn1CC(F)c1ccc(OC(F)F)c(OCC2CC2)c1 (racemic) [Compound 20, (±)-1-[2-[3-(cyclopropylmethoxy)-4-(difluoromethoxy)phenyl-2-fluoroethyl]-1,3-dihydro-2H-imidazol-2-one] |  |  | % inhibition of the extravasation of the dye [2, 4]: 94.4%
COc1ccc(C(C)Cn2cc[nH]c2=O)cc1OC1CCCC1 (stereo not shown) [Compound 6, (A)-1-[2-[3-(cyclopentyloxy)-4-methoxy-phenyl]propyl]-1,3-dihydro-2H-imidazol-2-one] | 0.0041 |  | % inhibition of the extravasation of the dye [2, 5]: 85.1%
COc1ccc(C(C)Cn2cc[nH]c2=O)cc1OC1CCCC1 (stereo not shown) [Compound 7, (B)-1-[2-[3-(cyclopentyloxy)-4-methoxyphenyl]propyl]-1,3-dihydro-2H-imidazol-2-one] | 0.043 |  | % inhibition of the extravasation of the dye [2, 5]: 67.0%
COc1ccc(C(C)Cn2cc[nH]c2=O)cc1OCC1CC1 (stereo not shown) [Compound 22, (A)-1-[2-[3-(cyclopropylmethoxy)-4-methoxyphenyl]propyl]-1,3-dihydro-2H-imidazol-2-one] | 0.045 | 83.5 | 
COc1ccc(C(C)Cn2cc[nH]c2=O)cc1OCC1CC1 (stereo not shown) [Compound 23, (B)-1-[2-[3-(cyclopropylmethoxy)-4-methoxyphenyl]propyl]-1,3-dihydro-2H-imidazol-2-one] |  |  | % inhibition of the extravasation of the dye [2, 3]: 72.1%
COc1ccc(C(C)Cn2cc[nH]c2=O)cc1OC1CCOC1 (stereo not shown) [Compound 29] | 0.24 |  | inhibition in vivo at 2.5 mg/kg [2, 4]: 90.7%
COc1ccc(C(C)Cn2cc[nH]c2=O)cc1OCC1CCCC1 (stereo not shown) [Compound 32] | 0.14 | 76.2 | 

Compound | IC50 [1] [µM] | inhibition in vivo at 5 mg/kg [2, 3] [%] | other results
COc1ccc(C(C)Cn2cc[nH]c2=O)cc1OCC1CCCO1 (stereo not shown) [Compound 33] | 2.3 | 65.8 | 
CC(Cn1cc[nH]c1=O)c1ccc(OC(F)F)c(OCc2ccccc2)c1 (stereo not shown) [Compound 34] | 0.19 | 31.1 | 
COc1ccc(CCn2cc[nH]c2=O)cc1OC1CCOC1 (stereo not shown) [Compound 35] | 0.18 | 90.1 | 
CC(Cn1ccnc1O)c1ccc(OC(F)F)c(OC2CCCC2)c1 (stereo not shown) [Compound 37] | 0.0007 | 75.7 | 
CC(Cn1cc[nH]c1=O)c1ccc(OC(F)F)c(OC(F)F)c1 (stereo not shown) [Compound 38] | 0.02 | 76.6 | 
COc1ccc(C(C)Cn2cc[nH]c2=O)cc1OC (stereo not shown) [Compound 76, 1,3-dihydro-1-[2-(3,4-dimethoxyphenyl)propyl]-2H-imidazol-2-one] | 0.15 | 69 | 
COc1ccc(C(C)Cn2c(C)c[nH]c2=O)cc1OC (stereo not shown) [Compound 77, 1,3-dihydro-1-[2-(3,4-dimethoxyphenyl)propyl]-5-methyl-2H-imidazol-2-one] | 7.3 | 35.8 | 
COc1ccc(CCN2CCNC2=O)cc1OC [Compound 78, 1-[2-(3,4-dimethoxyphenyl)ethyl]-1,3,4,5-tetrahydro-2H-imidazol-2-one] | 9 | 31.3 | 
COc1ccc(CCn2cc[nH]c2=O)cc1OC [Compound 79, 1,3-dihydro-1-[2-(3,4-dimethoxyphenyl)ethyl]-2H-imidazol-2-one] | 0.77 | 61.6 | 
COc1ccc(C(C)CN2CCNC2=O)cc1OC (stereo not shown) [Compound 80, 1-[2-(3,4-dimethoxyphenyl)propyl]-1,3,4,5-tetrahydro-2H-imidazol-2-one] | 3.2 | 53.4 | 
COc1cc(Br)c(CCn2cc[nH]c2=O)cc1OC [Compound 81, 1,3-dihydro-2-[2-(2-bromo-4,5-dimethoxyphenyl)ethyl]-2H-imidazol-2-one] |  |  | % inhibition of the extravasation of the dye [2, 3]: 34.1%
CCOc1ccc(CCn2cc[nH]c2=O)cc1OCC [Compound 82] | 0.46 | 28.2 | 
COc1ccc(C(Cn2cc[nH]c2=O)OC)cc1OC (stereo not shown) [Compound 83, 1,3-dihydro-1-[2-(3,4-dimethoxyphenyl)-2-methoxy-ethyl]-2H-imidazol-2-one] | 2.7 | 18.6 | 
COc1ccc(Cn2cc[nH]c2=O)cc1OC [Compound 84, 1,3-dihydro-1-[(3,4-dimethoxyphenyl)methyl]-2H-imidazol-2-one] |  | 46.5 | 
COc1ccc(CCCn2cc[nH]c2=O)cc1OC [Compound 85, 1,3-dihydro-1-[3-(3,4-dimethoxyphenyl)propyl]-2H-imidazol-2-one] |  | 31.6 | 
